In ChEMBL document CHEMBL3525901 (Drug Metab Dispos, 2012):
Blank lines part the entries; values can stand above or below the compound they belong to.

Assays:
Type in all cases: ADME, organism-based
[1] = AUC (0 to infinity) in Wistar rat extracellular fluid at 10 mg/kg, sc by HPLC-MS/MS analysis; set-up: time infinity, dose 10 mg/kg, route subcutaneous
[2] = Cmax in Wistar rat extracellular fluid at 10 mg/kg, sc by HPLC-MS/MS analysis; set-up: dose 10 mg/kg, route subcutaneous
[3] = Tmax in Wistar rat extracellular fluid at 10 mg/kg, sc by HPLC-MS/MS analysis; set-up: dose 10 mg/kg, route subcutaneous
[4] = AUC (0 to infinity) in rat; set-up: time infinity; conditions: plasma
[5] = Fraction unbound in Wistar rat plasma at 10 mg/kg, sc by HPLC-MS/MS analysis; set-up: dose 10 mg/kg, route subcutaneous
Plasma [6] = test: Unbound AUC (0 to infinity) in Wistar rat plasma at 10 mg/kg, sc by HPLC-MS/MS analysis; set-up: dose 10 mg/kg, route subcutaneous; conditions: in vivo
Plasma [7] = test: Unbound Cmax in Wistar rat plasma at 10 mg/kg, sc by HPLC-MS/MS analysis; set-up: dose 10 mg/kg, route subcutaneous; conditions: in vivo
[8] = Unbound Tmax in Wistar rat plasma at 10 mg/kg, sc by HPLC-MS/MS analysis; set-up: dose 10 mg/kg, route subcutaneous; conditions: read-out: fTmax (converted)
Brain [9] = test: Unbound volume of distribution in Wistar rat brain at 10 mg/kg, sc by HPLC-MS/MS analysis; set-up: dose 10 mg/kg, route subcutaneous; conditions: in vivo
[10] = Ratio of unbound AUC in extracellular fluid to unbound AUC in plasma of Wistar rat at 10 mg/kg, sc by HPLC-MS/MS analysis; set-up: dose 10 mg/kg, route subcutaneous; conditions: read-out: Ratio AUC
[11] = Ratio of steady state drug level in extracellular fluid to unbound drug level in plasma of Wistar rat at 10 mg/kg, sc by HPLC-MS/MS analysis; set-up: dose 10 mg/kg, route subcutaneous
[12] = AUC (0 to infinity) in Wistar rat extracellular fluid at 3 mg/kg, sc by HPLC-MS/MS analysis; set-up: time infinity, dose 3 mg/kg, route subcutaneous
[13] = Cmax in Wistar rat extracellular fluid at 3 mg/kg, sc by HPLC-MS/MS analysis; set-up: dose 3 mg/kg, route subcutaneous
[14] = Tmax in Wistar rat extracellular fluid at 3 mg/kg, sc by HPLC-MS/MS analysis; set-up: dose 3 mg/kg, route subcutaneous
Rattus norvegicus [15] = test: Central volume of distribution in Wistar rat extracellular fluid at 3 mg/kg, sc by HPLC-MS/MS analysis; set-up: dose 3 mg/kg, route subcutaneous; conditions: in vivo
[16] = Fraction unbound in Wistar rat plasma at 3 mg/kg, sc by HPLC-MS/MS analysis; set-up: dose 3 mg/kg, route subcutaneous
Plasma [17] = test: Unbound AUC (0 to infinity) in Wistar rat plasma at 3 mg/kg, sc by HPLC-MS/MS analysis; set-up: dose 3 mg/kg, route subcutaneous; conditions: in vivo
Plasma [18] = test: Unbound Cmax in Wistar rat plasma at 3 mg/kg, sc by HPLC-MS/MS analysis; set-up: dose 3 mg/kg, route subcutaneous; conditions: in vivo
[19] = Unbound Tmax in Wistar rat plasma at 3 mg/kg, sc by HPLC-MS/MS analysis; set-up: dose 3 mg/kg, route subcutaneous; conditions: read-out: fTmax (converted)
[20] = Systemic clearance in Wistar rat extracellular fluid at 3 mg/kg, sc by HPLC-MS/MS analysis; set-up: dose 3 mg/kg, route subcutaneous
Rattus norvegicus [21] = test: Absorption rate constant in Wistar rat extracellular fluid at 3 mg/kg, sc by HPLC-MS/MS analysis; set-up: dose 3 mg/kg, route subcutaneous; conditions: in vivo
Brain [22] = test: Unbound volume of distribution in Wistar rat brain at 3 mg/kg, sc by HPLC-MS/MS analysis; set-up: dose 3 mg/kg, route subcutaneous; conditions: in vivo
[23] = Ratio of uptake clearance to efflux clearance in Wistar rat brain extracellular fluid at 3 mg/kg, sc by HPLC-MS/MS analysis; set-up: dose 3 mg/kg, route subcutaneous; conditions: in vivo
[24] = Ratio of unbound AUC in extracellular fluid to unbound AUC in plasma of Wistar rat at 3 mg/kg, sc by HPLC-MS/MS analysis; set-up: dose 3 mg/kg, route subcutaneous; conditions: read-out: Ratio AUC
[25] = Ratio of steady state drug level in extracellular fluid to unbound drug level in plasma of Wistar rat at 3 mg/kg, sc by HPLC-MS/MS analysis; set-up: dose 3 mg/kg, route subcutaneous
[26] = Equilibration rate constant in Wistar rat brain extracellular fluid at 3 mg/kg, sc by HPLC-MS/MS analysis; set-up: dose 3 mg/kg, route subcutaneous; conditions: in vivo
[27] = AUC (0 to infinity) in Wistar rat extracellular fluid at […], sc by HPLC-MS/MS analysis; set-up: dose 1.6 mg/kg, route subcutaneous, time infinity
[28] = Cmax in Wistar rat extracellular fluid at […], sc by HPLC-MS/MS analysis; set-up: dose 1.6 mg/kg, route subcutaneous
[29] = Tmax in Wistar rat extracellular fluid at […], sc by HPLC-MS/MS analysis; set-up: dose 1.6 mg/kg, route subcutaneous
Rattus norvegicus [30] = test: Central volume of distribution in Wistar rat extracellular fluid at […], sc by HPLC-MS/MS analysis; set-up: dose 1.6 mg/kg, route subcutaneous; conditions: in vivo
[31] = Fraction unbound in Wistar rat plasma at […], sc by HPLC-MS/MS analysis; set-up: dose 1.6 mg/kg, route subcutaneous
Plasma [32] = test: Unbound AUC (0 to infinity) in Wistar rat plasma at […], sc by HPLC-MS/MS analysis; set-up: dose 1.6 mg/kg, route subcutaneous; conditions: in vivo
Plasma [33] = test: Unbound Cmax in Wistar rat plasma at […], sc by HPLC-MS/MS analysis; set-up: dose 1.6 mg/kg, route subcutaneous; conditions: in vivo
[34] = Unbound Tmax in Wistar rat plasma at […], sc by HPLC-MS/MS analysis; set-up: dose 1.6 mg/kg, route subcutaneous; conditions: read-out: fTmax (converted)
[35] = Systemic clearance in Wistar rat extracellular fluid at […], sc by HPLC-MS/MS analysis; set-up: dose 1.6 mg/kg, route subcutaneous
Rattus norvegicus [36] = test: Absorption rate constant in Wistar rat extracellular fluid at […], sc by HPLC-MS/MS analysis; set-up: dose 1.6 mg/kg, route subcutaneous; conditions: in vivo
Brain [37] = test: Unbound volume of distribution in Wistar rat brain at […], sc by HPLC-MS/MS analysis; set-up: dose 1.6 mg/kg, route subcutaneous; conditions: in vivo
[38] = Ratio of uptake clearance to efflux clearance in Wistar rat brain extracellular fluid at […], sc by HPLC-MS/MS analysis; set-up: dose 1.6 mg/kg, route subcutaneous; conditions: in vivo
[39] = Ratio of unbound AUC in extracellular fluid to unbound AUC in plasma of Wistar rat at […], sc by HPLC-MS/MS analysis; set-up: dose 1.6 mg/kg, route subcutaneous; conditions: read-out: Ratio AUC
[40] = Ratio of steady state drug level in extracellular fluid to unbound drug level in plasma of Wistar rat at […], sc by HPLC-MS/MS analysis; set-up: dose 1.6 mg/kg, route subcutaneous
[41] = Equilibration rate constant in Wistar rat brain extracellular fluid at […], sc by HPLC-MS/MS analysis; set-up: dose 1.6 mg/kg, route subcutaneous; conditions: in vivo
Rattus norvegicus [42] = test: Central volume of distribution in Wistar rat extracellular fluid at 10 mg/kg, sc by HPLC-MS/MS analysis; set-up: dose 10 mg/kg, route subcutaneous; conditions: in vivo
[43] = Systemic clearance in Wistar rat extracellular fluid at 10 mg/kg, sc by HPLC-MS/MS analysis; set-up: dose 10 mg/kg, route subcutaneous
Rattus norvegicus [44] = test: Absorption rate constant in Wistar rat extracellular fluid at 10 mg/kg, sc by HPLC-MS/MS analysis; set-up: dose 10 mg/kg, route subcutaneous; conditions: in vivo
[45] = Ratio of uptake clearance to efflux clearance in Wistar rat brain extracellular fluid at 10 mg/kg, sc by HPLC-MS/MS analysis; set-up: dose 10 mg/kg, route subcutaneous; conditions: in vivo
[46] = Equilibration rate constant in Wistar rat brain extracellular fluid at 10 mg/kg, sc by HPLC-MS/MS analysis; set-up: dose 10 mg/kg, route subcutaneous; conditions: in vivo

SMILES: CN1CCN(C2=Nc3cc(Cl)ccc3Nc3ccccc32)CC1 [CLOZAPINE]
- AUC(0-inf) [1]: 0.0443 µM·h
- Cmax [2]: 6 nM
- Tmax [3]: 4 h
- AUC(0-inf) [4]: 5.39 µM·h
- fraction unbound [5]: 0.061
- fAUC (Plasma [6]): 19732 nM·min
- fCmax (Plasma [7]): 77 nM
- Tmax [8]: 1 h
- Vdu (Brain [9]): 70 mL/g
- Kp uu [10]: 0.15
- Kp uu [11]: 0.13

SMILES: Cc1nc2n(c(=O)c1CCN1CCC(c3noc4cc(F)ccc34)CC1)CCCC2 [RISPERIDONE]
- AUC(0-inf) [12]: 0.0591 µM·h
- Cmax [13]: 20 nM
- Tmax [14]: 1.25 h
- Vd (Rattus norvegicus [15]): 21 L/kg
- fraction unbound [16]: 0.16
- fAUC (Plasma [17]): 24022 nM·min
- fCmax (Plasma [18]): 181 nM
- Tmax [19]: 0.883 h
- CL/F [20]: 307 mL/min/kg
- ka (Rattus norvegicus [21]): 0.03 min⁻¹
- Vdu (Brain [22]): 10 mL/g
- Ratio [23]: 0.14
- Kp uu [24]: 0.15
- Kp uu [25]: 0.21
- Ke [26]: 0.006 min⁻¹

- AUC(0-inf) [27]: 0.197 µM·h
- Cmax [28]: 62 nM
- Tmax [29]: 2 h
- Vd (Rattus norvegicus [30]): 4.1 L/kg
- fraction unbound [31]: 0.5
- fAUC (Plasma [32]): 13888 nM·min
- fCmax (Plasma [33]): 131 nM
- Tmax [34]: 0.433 h
- CL/F [35]: 277 mL/min/kg
- ka (Rattus norvegicus [36]): 0.02 min⁻¹
- Vdu (Brain [37]): 18 mL/g
- Ratio [38]: 1.24
- Kp uu [39]: 0.86
- Kp uu [40]: 1.06
- Ke [41]: 0.015 min⁻¹
SMILES: CN(C)CCC[C@@]1(c2ccc(F)cc2)OCc2cc(C#N)ccc21 [ESCITALOPRAM]

- AUC(0-inf) [1]: 0.0134 µM·h
- Cmax [2]: 2 nM
- Tmax [3]: 4.63 h
- Vd (Rattus norvegicus [42]): 607 L/kg
- fraction unbound [5]: 0.11
- fAUC (Plasma [6]): 32296 nM·min
- fCmax (Plasma [7]): 90 nM
- Tmax [8]: 1.05 h
- CL/F [43]: 1600 mL/min/kg
- ka (Rattus norvegicus [44]): 0.5 min⁻¹
- Vdu (Brain [9]): 82 mL/g
- Ratio [45]: 0.05
- Kp uu [10]: 0.03
- Kp uu [11]: 0.04
- Ke [46]: 0.006 min⁻¹
SMILES: Clc1ccc2c(c1)N=C(N1CCNCC1)c1ccccc1N2 [N-DESMETHYLCLOZAPINE]
